Laboratory results from patent US8784910B2, “Antimicrobial compositions” (Lonza Inc., priority 2002, dated 2014).

Legend:
Format in all cases: cell-based
[1] = system: S. aureus (ATCC #6538), P. aeruginosa (ATCC #9027), and E. coli (ATCC #8739); test: Mixed bacterial challenge of preserved anionic protein shampoo (Examples 4 and 7); conditions: for Qb: concentration alone required for 100% retardation of the bacteria
Description: Each anionic shampoo sample in Table 3 below was tested as follows. A standardized mixed bacterial solution was prepared according to the following procedure. 3 agar stabs of S. aureus (ATCC #6538), P. aeruginosa (ATCC #9027), and E. coli (ATCC #8739) were separately incubated at about 35 EC for about 24 hours. Each stab was then washed with 3 mL of sterile 0.85% saline solution. The washes of the 3 stabs were pooled together to form an organism mixture. The absorbance of the organism mixture at 530 nm was adjusted to about 1.00 by adding saline. The spectrometer was calibrated with a saline blank. A 5 mL aliquot of the organism mixture was mixed together to produce the standardized mixed bacterial solution. Then, 40 g of each shampoo sample was inoculated with 0.2 mL of the standardized mixed bacterial solution and mixed. 1 g of the mixture was added to a sterile 20×150 mm screw cap test tube.
9 mL of sterile D/E neutralizer broth was added to the test tube and mixed to form a 10^−1 dilution. Serial dilutions were prepared through to a 10^−6 dilution with phosphate buffered water. The serial dilutions were plated onto Tryptic Soy Agar and incubated for 2 days at about 35 EC. Bacteria counts were performed after 0, 7, and 14 days.
The anionic protein shampoo composition was comprised of 35% by weight of sodium lauryl ether sulfate; 25% by weight of triethanolamine lauryl sulfate; 3% by weight coconut diethanolamide (cocamide DEA); 1% by weight of hydrolyzed collagen, available as Polypro 5000™ from Hormel Foods of Austin, Minn.; and 36% by weight of deionized water.
The cinnamaldehyde and other preservative containing samples were prepared by mixing the appropriate amounts of the preservatives and the aforementioned anionic protein shampoo composition and heating the mixture to about 50 EC for about 15 minutes.
Synergism for the cinnamaldehyde/Glydant 2000™ solutions in Table 8 against S. aureus, P. aeruginosa, and E. coli was calculated by the method described in C. E. Kull et al., A Mixtures of Quaternary Ammonium Compounds and Long-chain Fatty Acids as Antifungal Agents@, Applied Microbiology, 9:538-541 (1961). The synergism value (QA/Qa+QB/Qb) in Table 7 was determined. […] Qa is the concentration of cinnamaldehyde alone (in percent by weight) required to yield 100% retardation of the bacteria. QB is the concentration of Glydant 2000™ (in percent by weight) in the mixture, which yielded 100% retardation of the bacteria. Qb is the concentration of Glydant 2000™ alone (in percent by weight) required to yield 100% retardation of the bacteria.
When the value of (QA/Qa+QB/Qb) is less than one, the mixture is synergistic. Values for (QA/Qa+QB/Qb) of 1 and greater than 1, represent an additive effect and an antagonistic effect, respectively.

[2] = system: Candida albicans and Aspergillus niger; test: Mixed fungal challenge of preserved anionic protein shampoo (Example 5)
Description: Each anionic shampoo sample in Table 4 below was tested as follows. A standard mixed […] solution was prepared according to the following procedure. 2 agar […] of Candida albicans and 4 agar […] of Aspergillus niger were separately incubated at about 25 EC for about 48 hours and 7 days, respectively. Each slant was washed with 3 mL of sterile 0.85% saline solution, collected and macerated in a tissue grinder. Sufficient amounts of 0.85% saline solution were added to each slant to obtain a visual count under a microscope with a Neubauer Hemocytometer of each innoculum of C. albicans and A. niger. Equal volumes of each standardized innoculum of C. albicans and A. niger were mixed together to form the standardized mixed fungal solution. 40 g of each shampoo sample was inoculated with 0.4 mL of the standardized mixed fungal solution and mixed. 1 g of the mixture was added to a sterile 20×150 mm screw cap test tube. 9 mL of sterile D/E neutralizer broth was added to the test tube and mixed to form a 10^-1 dilution. Serial dilutions were prepared through to a 10^-6 dilution with phosphate buffered water. The serial dilutions were plated onto Sabourand dextrose agar and incubated 5 days at about 25 EC. […] The anionic protein shampoo composition is described in Example 4. The shampoo samples were prepared by mixing the appropriate amounts of the preservatives and the anionic protein shampoo composition and heating the mixture to about 50 EC for about 15 minutes.

fungi = test: Fungal plate count of preserved GMS cream (Example 6)
Description: Each cream sample in Table 5 below was tested by the procedure described in Example 1. A glyceryl monostearate (GMS) cream as described in Table 3 below was prepared as follows. The polyoxyethylene glyceryl monostearate, glyceryl monostearate, cetearyl alcohol, and myristyl propionate were mixed and heated to 60 EC in a first container. The glycerin and sterile deionized water were mixed and heated to 60 EC in a second container. The solution in the first container was poured into the second container. The second container was maintained at 60 EC for 10 minutes. The solution in the second container was allowed to cool. The pH of the solution was adjusted to pH 7 with sodium hydroxide to yield the GMS cream. The cream samples shown in Table 7 below were prepared by mixing the appropriate amounts of the preservatives and the GMS cream and heating the mixture to 50 EC for 10-15 minutes.

## O=CC=Cc1ccccc1 [Cinnamaldehyde, cinnamaldehyde]
[1]; 0.05% in shampoo, Day 0, Example 7 Table 8
  S. aureus, P. aeruginosa, and E. coli Day 0: 3.0 × 10^6 cfu/g
[1]; 0.05% in shampoo, Day 7, Example 7 Table 8
  S. aureus, P. aeruginosa, and E. coli Day 7: 6.5 × 10^6 cfu/g
[1]; 0.05% in shampoo, Day 14, Example 7 Table 8
  S. aureus, P. aeruginosa, and E. coli Day 14: 1.0 × 10^7 cfu/g
[1]; 0.10% by weight in shampoo, Day 0, Table 3
  S. aureus, P. aeruginosa, and E. coli Day 0: 3.0 × 10^7 cfu/g
[1]; 0.10% by weight in shampoo, Day 7, Table 3
  S. aureus, P. aeruginosa, and E. coli Day 7: 1.0 × 10^1 cfu/g
[1]; 0.10% by weight in shampoo, Day 14, Table 3
  S. aureus, P. aeruginosa, and E. coli Day 14: <10 cfu/g
[1]; 0.10% in shampoo, Day 0, Example 7 Table 8
  S. aureus, P. aeruginosa, and E. coli Day 0: 3.0 × 10^6 cfu/g
[1]; 0.10% in shampoo, Day 7, Example 7 Table 8
  S. aureus, P. aeruginosa, and E. coli Day 7: 1.0 × 10^1 cfu/g
[1]; 0.10% in shampoo, Day 14, Example 7 Table 8
  S. aureus, P. aeruginosa, and E. coli Day 14: <10 cfu/g
[1]; 0.20% by weight in shampoo, Day 0, Table 3
  S. aureus, P. aeruginosa, and E. coli Day 0: 3.0 × 10^7 cfu/g
[1]; 0.20% by weight in shampoo, Day 7, Table 3
  S. aureus, P. aeruginosa, and E. coli Day 7: <10 cfu/g
[1]; 0.20% by weight in shampoo, Day 14, Table 3
  S. aureus, P. aeruginosa, and E. coli Day 14: <10 cfu/g
[1]; 0.25% by weight in shampoo, Day 0, Table 3
  S. aureus, P. aeruginosa, and E. coli Day 0: 3.0 × 10^7 cfu/g
[1]; 0.25% by weight in shampoo, Day 7, Table 3
  S. aureus, P. aeruginosa, and E. coli Day 7: <10 cfu/g
[1]; 0.25% by weight in shampoo, Day 14, Table 3
  S. aureus, P. aeruginosa, and E. coli Day 14: <10 cfu/g
[1]; For Day 7
  Qb: 0.1%
[1]; For Day 14
  Qb: 0.05%
[2]; 0.05% in shampoo
  Fungal Plate Count Day 0: 1.0 × 10^5 cfu/g
  Fungal Plate Count Day 7: 8.0 × 10^3 cfu/g
  Fungal Plate Count Day 14: <10 cfu/g
[2]; 0.10% in shampoo
  Fungal Plate Count Day 0: 1.0 × 10^5 cfu/g
  Fungal Plate Count Day 7: 3.0 × 10^1 cfu/g
  Fungal Plate Count Day 14: <10 cfu/g
[2]; 0.20 in shampoo
  Fungal Plate Count Day 0: 1.0 × 10^5 cfu/g
  Fungal Plate Count Day 7: <10 cfu/g
  Fungal Plate Count Day 14: <10 cfu/g
fungi; 0.10% in GMS cream
  Fungal Plate Count Day 0: 1.0 × 10^5 cfu/g
  Fungal Plate Count Day 7: <10 cfu/g
  Fungal Plate Count Day 14: <10 cfu/g
fungi; 0.25% in GMS cream
  Fungal Plate Count Day 0: 1.0 × 10^5 cfu/g
  Fungal Plate Count Day 7: <10 cfu/g
  Fungal Plate Count Day 14: <10 cfu/g
